{
  "source": "paper PMC10526274",
  "about": "“Epithelial-Immune Cell Crosstalk Determines the Activation of Immune Cells In Vitro by the Human Cathelicidin LL-37 at Low Physiological Concentrations” (Biomolecules, 2023)",
  "tested_on": "Caco-2/monocytes co-culture",
  "assay": "Multiplex xMAP cytokine levels, Caco-2/monocytes co-culture stimulated with LL-37",
  "type": "cell-based, human",
  "conditions": "monocytes/Caco-2 co-culture, 1 µM LL-37, 24 h, n=2",
  "experimental": "Caco-2 cell line (ATCC HTB-37) was cultured in a humidified CO2-incubator (5% CO2, 37 °C) in the complete DMEM/F12 (1:1) medium (Gibco, Waltham, MA, USA) containing 10% fetal bovine serum (FBS, Gibco) and 1X antibiotic–antimycotic solution (Gibco). To stabilize the cell phenotype, Caco-2 cells have been subcultivated three times before seeding on the filter supports. Then, Caco-2 cells were seeded at a density of 2 × 10^5 cells/cm^2 onto 24-well Millicell cell culture inserts (PC, 0.4-μm pore size, 0.6 cm^2 surface area, cat. #PIHP01250) (Millipore, Burlington, MA, USA), precoated with 0.2% bovine gelatin (Sigma-Aldrich, Saint Louis, MO, USA). After seeding, Caco-2 cells were grown in the same complete medium with re-feeding every 2–3 days until polarization of the monolayer occurred. The functional polarity of the monolayers was developed when transepithelial electrical resistance (TEER) between the apical and basolateral surfaces of the monolayers reached […] as measured by the electrical resistance system Millicell-ERS Voltohmmeter (Millipore, Burlington, MA, USA). Grown cell monolayers were used in transport and cytokine production experiments between the 21st and 29th days.\nPeripheral blood mononuclear cells (PBMCs) from a healthy donor were purchased from the American Type Culture Collection (ATCC PCS-800-011). Blood monocytes were isolated from PBMCs by plastic adhesion. Mature monocyte-derived dendritic cells (moDCs) were generated in vitro from peripheral blood monocytes, according to Nair et al.. Briefly, monocytes were cultured in a humidified CO2-incubator (5% CO2, 37 °C) in the complete RPMI-1640 medium (Gibco) with 10% FBS, antibiotics, and supplemented with a cytokine cocktail containing 500 U/mL rhIL-4 and 800 U/mL rhGM-CSF (both Sci-Store, Moscow, Russia). On the third day, the medium was replaced by the same fresh medium with FBS, antibiotics, and the cytokine cocktail. Induction of maturation of the immature monocyte-derived dendritic cells was performed on the 5th day by replacing the medium with the complete RPMI-1640 medium (Gibco) with 10% FBS and antibiotics, supplemented with a cytokine cocktail containing 500 U/mL rhIL-4, 800 U/mL rhGM-CSF (both Sci-Store, Moscow, Russia), and 100 U/mL rhTNF-α (Sigma-Aldrich), and subjected to subsequent incubation of the culture for 4 more days.\nPrimary blood monocytes, moDCs, and NKT cells were seeded in 600 µL of complete RPMI-1640 with 10% Human AB serum (Capricorn Scientific, Ebsdorfergrund, Germany) and supplemented with 1X antibiotic–antimycotic solution into the wells of 24-well plates at a density of 3–7 × 10^5 cells/well 24 h before the experiment. Then, 24 h later, the medium in each well was replaced by the same medium with 1 µM of LL-37 for the sample wells or fresh medium alone for the control wells, and the permeable inserts with the Caco-2 monolayer with TEER > 400 Ω × cm^2, containing 400 μL of the complete medium in their apical chamber, were immediately placed into the appropriate wells. Also, inserts with the Caco-2 monolayer were placed in cell-free wells of 24-well plates in the same complete RPMI-1640 medium with or without 1 µM of LL-37 as controls. Cells were kept in a CO2-incubator (5% CO2, 37 °C) for another 24 h. Then, culture medium from each well was collected, centrifuged, and frozen at −70 °C.\nTo quantitatively evaluate a broad spectrum of analytes secreted by human cell cultures at the protein level, multiplex xMAP technology was used. […]",
  "note": "Where “and” joins values, the source holds several entries; their conditions need not be identical. Identical values can stand only once.",
  "data": [
    {"substance": "LL-37: the only human cathelicidin, host defense antimicrobial peptide of 37 a.a. residues, produced by solid-phase peptide synthesis", "values": [
      {"measurement": "IL-2 level", "setting": "control 1.07", "result": 1.07, "unit": "pg/mL"},
      {"measurement": "FLT-3L level", "setting": "control 1.18", "result": 1.37, "unit": "pg/mL"},
      {"measurement": "IFNg level", "setting": "control 1.33", "result": 2.28, "unit": "pg/mL"},
      {"measurement": "IL-15 level", "setting": "control 1.67", "result": 2.58, "unit": "pg/mL"},
      {"measurement": "IL-18 level", "setting": "control 3.28", "result": 2.42, "unit": "pg/mL"},
      {"measurement": "TGF-a level", "setting": "control 3.5", "result": 3.88, "unit": "pg/mL"},
      {"measurement": "GM-CSF level", "setting": "control 3.75", "result": 18.58, "unit": "pg/mL"},
      {"measurement": "IL-4 level", "setting": "control 6.54", "result": 8.01, "unit": "pg/mL"},
      {"measurement": "IL-9 level", "setting": "control 6.65", "result": 8.94, "unit": "pg/mL"},
      {"measurement": "EGF level", "setting": "control 8.06", "result": 10.26, "unit": "pg/mL"},
      {"measurement": "IFNa2 level", "setting": "control 11.65", "result": 13.12, "unit": "pg/mL"},
      {"measurement": "IL-10 level", "setting": "control 14.79, p = 0.0007", "result": "57.4 pg/mL and 57.47 pg/mL"},
      {"measurement": "TNFb level", "setting": "control 21.66, p = 0.015", "result": 30.56, "unit": "pg/mL"},
      {"measurement": "IL-1a level", "setting": "control 22.02", "result": 53.04, "unit": "pg/mL"},
      {"measurement": "Fractalkine level", "setting": "control 22.95", "result": 31.4, "unit": "pg/mL"},
      {"measurement": "MIP-1a level", "setting": "control 27.72, p = 0.11", "result": 3622, "unit": "pg/mL"},
      {"measurement": "IL-1b level", "setting": "control 29.14, p = 0.0072", "result": "104 pg/mL and 104.8 pg/mL"},
      {"measurement": "IL-12 (p40) level", "setting": "control 34.49", "result": 56.57, "unit": "pg/mL"},
      {"measurement": "M-GSF level", "setting": "control 35.52", "result": 157.86, "unit": "pg/mL"},
      {"measurement": "IL-1RA level", "setting": "control 42.52", "result": 108.8, "unit": "pg/mL"},
      {"measurement": "IL-13 level", "setting": "control 42.56", "result": 52.71, "unit": "pg/mL"},
      {"measurement": "FGF-2 level", "setting": "control 48.6", "result": 52.5, "unit": "pg/mL"},
      {"measurement": "IL-22 level", "setting": "control 48.87, p = 0.029", "result": "71 pg/mL and 71.9 pg/mL"},
      {"measurement": "MIP-1b level", "setting": "control 49.37, p = 0.017", "result": ">3455↑ pg/ml"},
      {"measurement": "TNFa level", "setting": "control 87.19, p = 0.019", "result": "306 pg/mL and 306.44 pg/mL"},
      {"measurement": "IL-27 level", "setting": "control 88.48", "result": 119.16, "unit": "pg/mL"},
      {"measurement": "sCD40L level", "setting": "control 92.05", "result": 88.6, "unit": "pg/mL"},
      {"measurement": "G-CSF level", "setting": "control 181.87, p = 0.012", "result": 1150, "unit": "pg/mL"},
      {"measurement": "IP-10 level", "setting": "control 191.78", "result": 3346, "unit": "pg/mL"},
      {"measurement": "PDGF-AA level", "setting": "control 243.05", "result": 189.29, "unit": "pg/mL"},
      {"measurement": "MIG level", "setting": "control 306.48, p = 0.0018", "result": "959 pg/mL and 959.23 pg/mL"},
      {"measurement": "PDGF-AB/BB level", "setting": "control 692.27", "result": 713.51, "unit": "pg/mL"},
      {"measurement": "MCP-3 level", "setting": "control 707.64", "result": 4706, "unit": "pg/mL"},
      {"measurement": "VEGFa level", "setting": "control 1586", "result": 2190, "unit": "pg/mL"},
      {"measurement": "IL-6 level", "setting": "control 2266", "result": 5678, "unit": "pg/mL"},
      {"measurement": "MDC level", "setting": "control 4385", "result": 1264, "unit": "pg/mL"},
      {"measurement": "GROa level", "setting": "control 4827", "result": 4862, "unit": "pg/mL"},
      {"measurement": "MCP-1 level", "setting": "control 12186", "result": 5364, "unit": "pg/mL"},
      {"measurement": "IL-8 level", "setting": "control 15625", "result": 19839, "unit": "pg/mL"},
      {"measurement": "IL-7 level", "setting": "control <0.30", "result": "<0.30↓ pg/ml"},
      {"measurement": "IL-5 level", "setting": "control <0.35", "result": "<0.35↓ pg/ml"},
      {"measurement": "IL-3 level", "setting": "control <0.55", "result": "<0.55↓ pg/ml"},
      {"measurement": "RANTES level", "setting": "control <0.64", "result": 729.59, "unit": "pg/mL"},
      {"measurement": "IL-17A level", "setting": "control <0.70", "result": 2.63, "unit": "pg/mL"},
      {"measurement": "IL-12 (p70) level", "setting": "control <1.71", "result": 2.3, "unit": "pg/mL"},
      {"measurement": "Eotaxin level", "setting": "control <2.91", "result": "<2.91↓ pg/ml"},
      {"measurement": "IL-17F level", "setting": "control <12.19", "result": "<12.19↓ pg/ml"},
      {"measurement": "IL-17E/IL-25 level", "setting": "control <19.43", "result": "<19.43↓ pg/ml"}
    ]}
  ]
}
